In paper PMC9516332 (Frontiers in Oncology, 2022):
Read-outs that look alike come from different tables or passages of the source.

System: 134 cancer cell lines
Assay: Cell viability assay (ATPlite, 72 hours), IC50 on cancer cell line panel

With `CCN1C(=O)N(c2c(F)c(OC)cc(OC)c2F)Cc2cnc3[nH]c(CN4CCOCC4)cc3c21` [pemigatinib] the IC50 (Homo sapiens, LS174T, read-out: IC50 in cell proliferation assay) was 3.69 µM, the IC50 (Homo sapiens, LS-411N, read-out: IC50 in cell proliferation assay) was 5.91 µM and the IC50 (Homo sapiens, LoVo, read-out: IC50 in cell proliferation assay) was 2.7 µM. It also gave an IC50 (Homo sapiens, MCF7, read-out: IC50 in cell proliferation assay) of over 31.6 µM, an IC50 (Homo sapiens, MDA-MB-231, read-out: IC50 in cell proliferation assay) of 4.51 µM and an IC50 (Homo sapiens, MDA-MB-453, read-out: IC50 in cell proliferation assay) of over 31.6 µM. For the same molecule, the IC50 (Homo sapiens, MDA-MB-468, read-out: IC50 in cell proliferation assay) was 0.729 µM, the IC50 (Homo sapiens, MG-63, read-out: IC50 in cell proliferation assay) was 0.011 µM and the IC50 (Homo sapiens, MIA PaCa-2, read-out: IC50 in cell proliferation assay) was 5.73 µM. The IC50 (Homo sapiens, MKN-45, read-out: IC50 in cell proliferation assay) was 2.32 µM, the IC50 (Homo sapiens, MOLM-13, read-out: IC50 in cell proliferation assay) was 3.54 µM and the IC50 (Homo sapiens, MOLT-4, read-out: IC50 in cell proliferation assay) was 3.59 µM. For the same molecule, the IC50 (Homo sapiens, MV4-11, read-out: IC50 in cell proliferation assay) was 2.49 µM, the IC50 (Homo sapiens, MeWo, read-out: IC50 in cell proliferation assay) was 2.81 µM and the IC50 (Homo sapiens, NCCIT, read-out: IC50 in cell proliferation assay) was 0.022 µM. It also gave an IC50 (Homo sapiens, NCI-H82, read-out: IC50 in cell proliferation assay) of 1.4 µM, an IC50 (Homo sapiens, NCI-H460, read-out: IC50 in cell proliferation assay) of 2.75 µM and an IC50 (Homo sapiens, NCI-H661, read-out: IC50 in cell proliferation assay) of 2.44 µM. The IC50 (Homo sapiens, NCI-H716, read-out: IC50 in cell proliferation assay) was 0.00234 µM, the IC50 (Homo sapiens, NCI-H1650, read-out: IC50 in cell proliferation assay) was 3.3 µM and the IC50 (Homo sapiens, NCI-H1975, read-out: IC50 in cell proliferation assay) was 2.97 µM. It also gave an IC50 (Homo sapiens, NCI-H2228, read-out: IC50 in cell proliferation assay) of 2.77 µM, an IC50 (Homo sapiens, OVCAR-3, read-out: IC50 in cell proliferation assay) of 3.13 µM and an IC50 (Homo sapiens, PFSK-1, read-out: IC50 in cell proliferation assay) of 3.86 µM. It also gave an IC50 (Homo sapiens, RL95-2, read-out: IC50 in cell proliferation assay) of 2.38 µM, an IC50 (Homo sapiens, RPMI-7951, read-out: IC50 in cell proliferation assay) of 2.98 µM and an IC50 (Homo sapiens, RS4-11, read-out: IC50 in cell proliferation assay) of 1.33 µM. It also gave an IC50 (Homo sapiens, Rec1, read-out: IC50 in cell proliferation assay) of 3.53 µM, an IC50 (Homo sapiens, SHP77, read-out: IC50 in cell proliferation assay) of over 31.6 µM and an IC50 (Homo sapiens, SK-BR-3, read-out: IC50 in cell proliferation assay) of 0.835 µM. The IC50 (Homo sapiens, SK-N-AS, read-out: IC50 in cell proliferation assay) was 2.83 µM, the IC50 (Homo sapiens, SK-N-FI, read-out: IC50 in cell proliferation assay) was 3.04 µM and the IC50 (Homo sapiens, SK-N-MC, read-out: IC50 in cell proliferation assay) was 2.6 µM. The IC50 (Homo sapiens, SK-N-SH, read-out: IC50 in cell proliferation assay) was 2.23 µM, the IC50 (Homo sapiens, SNU-5, read-out: IC50 in cell proliferation assay) was 5.25 µM and the IC50 (Homo sapiens, SNU-16, read-out: IC50 in cell proliferation assay) was 0.002 µM. For the same molecule, the IC50 (Homo sapiens, SNU-C2B, read-out: IC50 in cell proliferation assay) was over 31.6 µM, the IC50 (Homo sapiens, SU-DHL-1, read-out: IC50 in cell proliferation assay) was 2.8 µM and the IC50 (Homo sapiens, SU-DHL-6, read-out: IC50 in cell proliferation assay) was 5.12 µM. It also gave an IC50 (Homo sapiens, SUP-T1, read-out: IC50 in cell proliferation assay) of 4.28 µM, an IC50 (Homo sapiens, SW48, read-out: IC50 in cell proliferation assay) of 8.07 µM and an IC50 (Homo sapiens, SW480, read-out: IC50 in cell proliferation assay) of 2.96 µM. The IC50 (Homo sapiens, SW626, read-out: IC50 in cell proliferation assay) was 3.56 µM, the IC50 (Homo sapiens, SW780, read-out: IC50 in cell proliferation assay) was 0.008 µM and the IC50 (Homo sapiens, SW837, read-out: IC50 in cell proliferation assay) was 6.23 µM. The IC50 (Homo sapiens, SW872, read-out: IC50 in cell proliferation assay) was 2.5 µM, the IC50 (Homo sapiens, SW900, read-out: IC50 in cell proliferation assay) was 1.92 µM and the IC50 (Homo sapiens, SW948, read-out: IC50 in cell proliferation assay) was 1.93 µM. The IC50 (Homo sapiens, SW982, read-out: IC50 in cell proliferation assay) was 1.28 µM, the IC50 (Homo sapiens, SW-620, read-out: IC50 in cell proliferation assay) was 3.49 µM and the IC50 (Homo sapiens, T98G, read-out: IC50 in cell proliferation assay) was 3.54 µM. It also gave an IC50 (Homo sapiens, TCC-SUP, read-out: IC50 in cell proliferation assay) of 0.606 µM, an IC50 (Homo sapiens, THP-1, read-out: IC50 in cell proliferation assay) of 4.23 µM and an IC50 (Homo sapiens, U2OS, read-out: IC50 in cell proliferation assay) of 2.95 µM. The IC50 (Homo sapiens, U-87 MG, read-out: IC50 in cell proliferation assay) was 3.12 µM, the IC50 (Homo sapiens, U-118-MG, read-out: IC50 in cell proliferation assay) was 4.09 µM and the IC50 (Homo sapiens, UMUC3, read-out: IC50 in cell proliferation assay) was 1.6 µM. For the same molecule, the IC50 (Hs766T, read-out: IC50 in cell proliferation assay) was 5.66 µM, the IC50 (L-82, read-out: IC50 in cell proliferation assay) was 4.1 µM and the IC50 (Rh30, read-out: IC50 in cell proliferation assay) was 0.137 µM.
